Earlier results, collected in patent US5183829A, “Oral liquid compositions of non-steroidal anti-inflammatory drugs” (priority 1991, dated 1993).

Conditions: enteric coated tablet vs aqueous solution

For O=C(O)Cc1ccccc1Nc1c(Cl)cccc1Cl [sodium diclofenac], the oral bioavailability is listed as “more bioavailable orally from an enteric coated tablet than from an aqueous solution”.
